This is an account of results in patent US4859663A, “Multiply substituted pyridine 1-oxide compounds which are useful in treating brain disorders” (Hoechst Aktiengesellschaft, priority 1985, dated 1989).

Like-named read-outs stand apart in the source and are kept apart here.

Data set [1] is described as follows: Acute toxicity (LD50). The following applies: in vivo, mouse, mortality within 7 days. The text has this: 2. Acute toxicity The standard method for the determination of the LD50 values or LD50 ranges via the mortality occurring in Naval Medical Research Institute mice within 7 days after a single intravenous (i.v.), intraperitoneal (i.p.) or oral (p.o.) administration was used.

In data set [2] the test system is anesthetized male rats. The data set is described as follows: EEG hypoxia-tolerance test (antihypoxic / cerebroprotective action). It is filed as in vivo, rat. The following applies: ip, read-out: % change in the EEG-RL (EEG hypoxia recovery latency period); for change in vivo at 25 mg/kg: 25 mg/kg i.p.
Description: The compounds according to the invention were tested for a cerebroprotective action towards damage caused by hypoxia by means of the EEG hypoxia-tolerance test (EEG: Electroencephalogram) comparing with the most important representatives of types of compounds which belong to the state of the art. In this method, anesthetized male rats with implanted EEG electrodes are subjected to progressive hypoxia by passing nitrogen into a chamber. […] The criterion used for assessment of an antihypoxic action is the EEG hypoxia recovery latency period (EEG-RL), which is defined as the time from the opening of the chamber after onset of EEG silence until the first signals appear again. […] The compounds according to the invention were administered intraperitoneally 15 minutes before the start of hypoxia. The group size was n =8.
For data set [3], the system named is naive mice of the male sex. The data set can be described thus: Scopolamine-induced retrograde amnesia in the passive avoidance test. It counts as in vivo, mouse. The following applies: for minimal effective dose: read-out: minimal effective dose (MED) countering scopolamine. How it is done: (a) Effect on the scopolamine-induced retrograde amnesia in the passive avoidance test
The test arrangement comprises a light/dark box with an electrifiable mesh floor in the dark section. 90 minutes after administration of placebo and product, naive mice of the male sex are treated subcutaneously with scopolamine hydrobromide (3 mg/kg). The mice are placed in the light section of the box 5 minutes later. After transferring into the dark section they receive there an electric shock to the feet which produces an unpleasant sensation. 24 hours thereafter, each mouse is placed once in the light section of the test apparatus, and the residence time (max. 180 seconds) is measured. […] The significant action of a test substance is calculated, using a median test, by comparison with the control group. The minimal effective dose (MED) of a product is regarded as that which results in a significant action countering scopolamine.

The subject of data set [4] is rat. The data set is described as follows: Gamma-butyrolactone test on the rat (EEG). It counts as in vivo. An excerpt:
(b) Gamma-butyrolactone test on the rat
It is known from the literature (L.I. Wolfson et al., J. Neurochem. 29, 777 (1977)) that gamma-butyrolactone (GBL), inter alia, induces metabolic disturbances in the brain which can be followed by changes in the EEG. The compounds of the formula I are able to antagonize this action of GBL on the EEG.

Where [5] appears, read: rat, 15 minutes before hypoxia, n = 8, vs untreated control, shortening (negative) = protective.
Setting [6] is: rat, 50 mg/kg i.p., 15 minutes before hypoxia, n = 8, vs untreated control, shortening (negative) = protective.

Compound `Cc1cc(N2CCOCC2)c([N+](=O)[O-])c(C)[n+]1[O-]` [Example 5, 2,6-Dimethyl-4-(4-morpholinyl)-3-nitropyridine 1-oxide] came in with an LD50 at 168 h in data set [1] (iv, single i.v. administration) of more than 200 mg/kg. In data set [2] (setting [5]), the change in vivo at 25 mg/kg is -16%.
For `NC(=O)CN1CCCC1=O` [piracetam, 2-oxo-1-pyrrolidineacetamide, reference compound], in data set [3] (Mus musculus, po), the minimal effective dose came to 100 mg/kg.
`Cc1cc(N2CCN(c3ccc(F)cc3)CC2)c([N+](=O)[O-])c(C)[n+]1[O-]` [Example 26] came in with a 50% lethal dose (LD50) at 168 h in data set [1] (iv, single i.v. administration) of 200 mg/kg. For the same compound, the change in vivo at 25 mg/kg in data set [2] (setting [5]) is -27%.
As to `Cc1cc(N2CCCNCC2)c([N+](=O)[O-])c(C)[n+]1[O-]` [Example 11], the LD50 at 168 h in data set [1] (iv, single i.v. administration) turned out to be 200 mg/kg. In addition, the change in vivo at 50 mg/kg in data set [2] (Rattus norvegicus) is -23%.
`Cc1cc(N2CCCC2)c(C#N)c(C)[n+]1[O-]` [Example 13] returned an LD50 at 168 h in data set [1] (iv, single i.v. administration) of 200 mg/kg. In data set [2] (setting [6]), the change in vivo at 50 mg/kg is -32%.
The compound `c1ccc(Oc2cccnc2)cc1` [3-Phenoxypyridine, reference compound] came in with a 50% lethal dose (LD50) at 168 h in data set [1] (po, single p.o. administration) of 400 to 630 mg/kg. For the same compound, in data set [2] (setting [5]), the change in vivo at 25 mg/kg was -14%.
Turning to `Cc1cc(N2CCSCC2)c(C#N)c(C)[n+]1[O-].Cl` [Example 1, 3-Cyano-2,6-dimethyl-4-(4-thiomorpholinyl)pyridine 1-oxide hydrochloride], the LD50 at 168 h in data set [1] (iv, single i.v. administration) was found to be 135 mg/kg; in data set [1] (po, single p.o. administration), 1190 mg/kg. Further, the minimal effective dose in data set [3] (mouse, oral, 90 minutes before scopolamine 3 mg/kg s.c.) worked out at 25 mg/kg. Moreover, the “effectiveness relative to piracetam (from MED)” value in data set [3] (mouse, oral, passive avoidance) is “four times as effective as piracetam”. For the same compound, in data set [2] (setting [5]), the change in vivo at 25 mg/kg was -50%. For the same compound, the “protective action against GBL-induced EEG changes” value in data set [4] (100 and 200 mg/kg i.p.) is reported as “strong, dose-dependent protective action”. For the same compound, the “protective action against GBL compared with piracetam” value in data set [4] (i.p.) is “far exceeded that of the comparison product piracetam”.
Compound `Cc1cc(N2CCCCC2)c(C#N)c(C)[n+]1[O-]` [Example 14] gave a 50% lethal dose (LD50) at 168 h in data set [1] (iv, single i.v. administration) of 100 to 200 mg/kg. In data set [2] (setting [6]), the change in vivo at 50 mg/kg is -44%.
On to `Cc1cc(N2CCCCCC2)c(C#N)c(C)[n+]1[O-]` [Example 22], for which the LD50 at 168 h in data set [1] (iv, single i.v. administration) was in the range of 50 to 100 mg/kg. For the same compound, in data set [2] (setting [5]), the change in vivo at 25 mg/kg was -38%.
With `COC(=O)c1c(C)nc(C)c(C#N)c1-c1ccccc1[N+](=O)[O-]` [Methyl 3-cyano-2,6-dimethyl-4-(2-nitrophenyl)pyridine-5-carboxylate, reference compound], the median lethal dose (LD50) at 168 h in data set [1] (iv, single i.v. administration) lay within 50 to 100 mg/kg. Further, in data set [2] (setting [6]), the change in vivo at 50 mg/kg came to 16%.
`Cc1cc(N2CCCCC2)c([N+](=O)[O-])c(C)[n+]1[O-]` [Example 28] showed an LD50 at 168 h in data set [1] (iv, single i.v. administration) of 100 to 200 mg/kg. For the same compound, the change in vivo at 25 mg/kg in data set [2] (setting [5]) was -12%.
Turning to `Cc1cc(N2CCSCC2)c(C#N)c(C)n1` [3-Cyano-2,6-dimethyl-4-(4-thiomorpholinyl)pyridine, reference compound], the LD50 at 168 h in data set [1] (ip, single i.p. administration) lay in the range of 150 to 300 mg/kg.
